Literature values as cited in patent US20050181036A1 (Research Development Foundation, priority 2003, published 2005).
Entries after “also recorded” stand apart in the source; their conditions may differ.

solubility in dimethylsulfoxide (dimethylsulfoxide): soluble
solubility in ethanol (ethanol): soluble
solubility in ether (ether): insoluble
Structure (SMILES): COc1cc(/C=C/C(=O)CC(=O)/C=C/c2ccc(O)c(OC)c2)ccc1O [Curcumin, diferuloylmethane]
solubility in water (water): insoluble; also recorded: not water-soluble
